In patent publication US20190255086A1, “Compositions and Methods for Treating an Infection” (CMPD Licensing, LLC, priority 2015, published 2019):

How the values were obtained:
[1] = system: Proteus mirabilis; test: Expected efficacy of anti-bacterial agents against various bacteria (Tables 5 and 6); settings: Gram: neg
[2] = system: Viridans group streptococci; test: as above; settings: Gram: pos
[3] = system: Clostridium perfringens; settings: expected efficacy; Clostridium perfringens; Gram: anaer
[4] = system: Shigella sonnei; test: Expected efficacy of anti-bacterial agents against various bacteria (Tables 5 and 6); settings: Gram: neg
[5] = system: Klebsiella oxytoca; test: as above; settings: Gram: neg
[6] = system: Shigella boydii; test: as above; settings: Gram: neg
[7] = system: Bordetella pertussis; test: as above; settings: Gram: neg
[8] = system: Acinetobacter lwoffii; test: as above; settings: Gram: neg
[9] = system: Staphylococcus epidermidis; test: as above; settings: Gram: pos
[10] = system: Streptococcus pneumoniae; test: as above; settings: Gram: pos
[11] = system: Haemophilus influenzae; test: as above; settings: Gram: neg
[12] = system: Chlamydia trachomatis; test: as above; settings: Gram: n/a
[13] = system: Acinetobacter calcoaceticus; test: as above; settings: Gram: neg
[14] = system: Corynebacterium jeikeium; test: as above; settings: Gram: pos
[15] = system: Shigella flexneri; test: as above; settings: Gram: neg
[16] = system: Neisseria meningitidis; test: as above; settings: Gram: neg
[17] = system: Streptococcus pyogenes; test: as above; settings: Gram: pos
[18] = system: Escherichia coli; test: as above; settings: Gram: neg
[19] = system: Acinetobacter baumannii; test: as above; settings: Gram: neg
[20] = system: Citrobacter diversus; test: as above; settings: Gram: neg
[21] = system: Proteus vulgaris; test: as above; settings: Gram: neg
[22] = system: Corynebacterium urealyticum; test: as above; settings: Gram: pos
[23] = system: Pseudomonas fluorescens; test: as above; settings: Gram: neg
[24] = system: Methicillin resistant staph aureus (MRSA); test: as above; settings: Gram: pos
[25] = system: Diphtheroids; test: as above; settings: Gram: pos
[26] = system: Clostridium difficile; test: as above; settings: Gram: anaer
[27] = system: Enterococcus faecalis; test: as above; settings: Gram: pos
[28] = system: Peptostreptococcus; test: as above; settings: Gram: pos
[29] = system: Moraxella catarrhalis; test: as above; settings: Gram: neg
[30] = system: Neisseria gonorrhoeae; test: as above; settings: Gram: neg
[31] = system: Legionella pneumophila; settings: expected efficacy; Legionella pneumophila; Gram: neg
[32] = system: Staphylococcus aureus (MSSA); test: Expected efficacy of anti-bacterial agents against various bacteria (Tables 5 and 6); settings: Gram: pos
[33] = system: Shigella dysenteriae; test: as above; settings: Gram: neg
[34] = system: Serratia marcescens; test: as above; settings: Gram: neg
[35] = system: Klebsiella pneumoniae; test: as above; settings: Gram: neg
[36] = system: Yersinia pestis; settings: expected efficacy; Yersinia pestis; Gram: neg
[37] = system: Vibrio cholerae; test: Expected efficacy of anti-bacterial agents against various bacteria (Tables 5 and 6); settings: Gram: neg
[38] = system: Enterobacter aerogenes; test: as above; settings: Gram: neg
[39] = system: Klebsiella (Calymmatobacterium) granulomatis; test: as above; settings: Gram: neg
[40] = system: Campylobacter jejuni; test: as above; settings: Gram: neg
[41] = system: Citrobacter freundii; test: as above; settings: Gram: neg
[42] = system: Bacteroides fragilis; test: as above; settings: Gram: anaer
[43] = system: Enterococcus faecium; test: as above; settings: Gram: pos
[44] = system: Streptococcus agalactiae; test: as above; settings: Gram: pos
[45] = system: Mycoplasma pneumoniae; test: as above; settings: Gram: n/a
[46] = system: Chlamydia psittaci; settings: expected efficacy; Chlamydia psittaci; Gram: n/a
[47] = system: Enterobacter cloacae; test: Expected efficacy of anti-bacterial agents against various bacteria (Tables 5 and 6); settings: Gram: neg
[48] = system: Chlamydia pneumoniae; test: as above; settings: Gram: n/a
[49] = system: Pseudomonas aeruginosa; test: as above; settings: Gram: neg
[50] = system: Enterobacter sakazakii; test: as above; settings: Gram: neg
[51] = system: Haemophilus ducreyi; test: as above; settings: Gram: neg
[52] = system: Providencia stuartii; test: as above; settings: Gram: neg
[53] = system: Haemophilus parainfluenzae; test: as above; settings: Gram: neg
[54] = system: Brucella species; settings: expected efficacy; Brucella species; Gram: neg
[55] = system: Providencia rettgeri; test: Expected efficacy of anti-bacterial agents against various bacteria (Tables 5 and 6); settings: Gram: neg

Compound: NC[C@H]1O[C@H](O[C@H]2[C@H](O)[C@@H](O[C@H]3O[C@H](CO)[C@@H](O)[C@H](N)[C@H]3O)[C@H](N)C[C@@H]2N)[C@H](N)C[C@@H]1O [Tobramycin]
- Efficacy of various antibiotic agents [1]: yes
- Efficacy of various antibiotic agents [2]: no
- Efficacy of various antibiotic agents [3]: no
- Efficacy of various antibiotic agents [4]: yes
- Efficacy of various antibiotic agents [5]: yes
- Efficacy of various antibiotic agents [6]: yes
- Efficacy of various antibiotic agents [7]: no
- Efficacy of various antibiotic agents [8]: no
- Efficacy of various antibiotic agents [9]: no
- Efficacy of various antibiotic agents [10]: no
- Efficacy of various antibiotic agents [11]: yes
- Efficacy of various antibiotic agents [12]: no
- Efficacy of various antibiotic agents [13]: no
- Efficacy of various antibiotic agents [14]: no
- Efficacy of various antibiotic agents [15]: yes
- Efficacy of various antibiotic agents [16]: no
- Efficacy of various antibiotic agents [17]: no
- Efficacy of various antibiotic agents [18]: yes
- Efficacy of various antibiotic agents [19]: no
- Efficacy of various antibiotic agents [20]: yes
- Efficacy of various antibiotic agents [21]: yes
- Efficacy of various antibiotic agents [22]: no
- Efficacy of various antibiotic agents [23]: yes
- Efficacy of various antibiotic agents [24]: no
- Efficacy of various antibiotic agents [25]: no
- Efficacy of various antibiotic agents [26]: no
- Efficacy of various antibiotic agents [27]: no
- Efficacy of various antibiotic agents [28]: no
- Efficacy of various antibiotic agents [29]: yes
- Efficacy of various antibiotic agents [30]: no
- Efficacy of various antibiotic agents [31]: no
- Efficacy of various antibiotic agents [32]: no
- Efficacy of various antibiotic agents [33]: yes
- Efficacy of various antibiotic agents [34]: yes
- Efficacy of various antibiotic agents [35]: yes
- Efficacy of various antibiotic agents [36]: yes
- Efficacy of various antibiotic agents [37]: no
- Efficacy of various antibiotic agents [38]: yes
- Efficacy of various antibiotic agents [39]: yes
- Efficacy of various antibiotic agents [40]: yes
- Efficacy of various antibiotic agents [41]: yes
- Efficacy of various antibiotic agents [42]: no
- Efficacy of various antibiotic agents [43]: no
- Efficacy of various antibiotic agents [44]: no
- Efficacy of various antibiotic agents [45]: no
- Efficacy of various antibiotic agents [46]: no
- Efficacy of various antibiotic agents [47]: yes
- Efficacy of various antibiotic agents [48]: no
- Efficacy of various antibiotic agents [49]: yes
- Efficacy of various antibiotic agents [50]: yes
- Efficacy of various antibiotic agents [51]: yes

Compound: Colistimethate
- Efficacy of various antibiotic agents [1]: no
- Efficacy of various antibiotic agents [2]: no
- Efficacy of various antibiotic agents [5]: yes
- Efficacy of various antibiotic agents [7]: no
- Efficacy of various antibiotic agents [9]: no
- Efficacy of various antibiotic agents [10]: no
- Efficacy of various antibiotic agents [12]: no
- Efficacy of various antibiotic agents [14]: no
- Efficacy of various antibiotic agents [52]: no
- Efficacy of various antibiotic agents [16]: no
- Efficacy of various antibiotic agents [53]: no
- Efficacy of various antibiotic agents [17]: no
- Efficacy of various antibiotic agents [18]: yes
- Efficacy of various antibiotic agents [54]: no
- Efficacy of various antibiotic agents [21]: no
- Efficacy of various antibiotic agents [22]: no
- Efficacy of various antibiotic agents [23]: yes
- Efficacy of various antibiotic agents [24]: no
- Efficacy of various antibiotic agents [55]: no
- Efficacy of various antibiotic agents [25]: no
- Efficacy of various antibiotic agents [26]: no
- Efficacy of various antibiotic agents [27]: no
- Efficacy of various antibiotic agents [28]: no
- Efficacy of various antibiotic agents [29]: no
- Efficacy of various antibiotic agents [30]: no
- Efficacy of various antibiotic agents [31]: no
- Efficacy of various antibiotic agents [32]: no
- Efficacy of various antibiotic agents [34]: no
- Efficacy of various antibiotic agents [35]: yes
- Efficacy of various antibiotic agents [37]: no
- Efficacy of various antibiotic agents [38]: yes
- Efficacy of various antibiotic agents [39]: yes
- Efficacy of various antibiotic agents [42]: no
- Efficacy of various antibiotic agents [43]: no
- Efficacy of various antibiotic agents [44]: no
- Efficacy of various antibiotic agents [45]: no
- Efficacy of various antibiotic agents [46]: no
- Efficacy of various antibiotic agents [47]: yes
- Efficacy of various antibiotic agents [48]: no
- Efficacy of various antibiotic agents [49]: yes
- Efficacy of various antibiotic agents [50]: yes
